# Counter-ions that a name gives are not always drawn.
# Legend:
# [1] = target: Mer (phospho-Mer, MERTK-transfected 293A cells) (Homo sapiens (Human), UniProt Q12866); experiment: Mer autophosphorylation ELISA in transient transfected 293A cells (Example H); format: cell-based; settings: cellular activity; Mer autophosphorylation ELISA in transient transfected 293A cells
# Outline: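 293A cells transiently transfected with human MERTK were treated 1 h in serum-free medium with an 8-point compound dilution (0.3% DMSO final). Lysates were assayed by phospho-Mer sandwich ELISA against a phospho-Mer standard; IC50 came from a 4-parameter logistic fit, normalised to DMSO (100%) and reference-inhibitor (0%) controls.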
# [2] = target: Met (phospho-Met, HGF-stimulated PC-3 prostate cancer cells) (Homo sapiens (Human), UniProt P08581); experiment: Met autophosphorylation ELISA in PC-3 cells (Example F); format: cell-based; settings: cellular activity; Met autophosphorylation ELISA in PC-3 cells; read-out: c-Met IC50
# Chain of Met (phospho-Met, HGF-stimulated PC-3 prostate cancer cells) (P08581 25-1390): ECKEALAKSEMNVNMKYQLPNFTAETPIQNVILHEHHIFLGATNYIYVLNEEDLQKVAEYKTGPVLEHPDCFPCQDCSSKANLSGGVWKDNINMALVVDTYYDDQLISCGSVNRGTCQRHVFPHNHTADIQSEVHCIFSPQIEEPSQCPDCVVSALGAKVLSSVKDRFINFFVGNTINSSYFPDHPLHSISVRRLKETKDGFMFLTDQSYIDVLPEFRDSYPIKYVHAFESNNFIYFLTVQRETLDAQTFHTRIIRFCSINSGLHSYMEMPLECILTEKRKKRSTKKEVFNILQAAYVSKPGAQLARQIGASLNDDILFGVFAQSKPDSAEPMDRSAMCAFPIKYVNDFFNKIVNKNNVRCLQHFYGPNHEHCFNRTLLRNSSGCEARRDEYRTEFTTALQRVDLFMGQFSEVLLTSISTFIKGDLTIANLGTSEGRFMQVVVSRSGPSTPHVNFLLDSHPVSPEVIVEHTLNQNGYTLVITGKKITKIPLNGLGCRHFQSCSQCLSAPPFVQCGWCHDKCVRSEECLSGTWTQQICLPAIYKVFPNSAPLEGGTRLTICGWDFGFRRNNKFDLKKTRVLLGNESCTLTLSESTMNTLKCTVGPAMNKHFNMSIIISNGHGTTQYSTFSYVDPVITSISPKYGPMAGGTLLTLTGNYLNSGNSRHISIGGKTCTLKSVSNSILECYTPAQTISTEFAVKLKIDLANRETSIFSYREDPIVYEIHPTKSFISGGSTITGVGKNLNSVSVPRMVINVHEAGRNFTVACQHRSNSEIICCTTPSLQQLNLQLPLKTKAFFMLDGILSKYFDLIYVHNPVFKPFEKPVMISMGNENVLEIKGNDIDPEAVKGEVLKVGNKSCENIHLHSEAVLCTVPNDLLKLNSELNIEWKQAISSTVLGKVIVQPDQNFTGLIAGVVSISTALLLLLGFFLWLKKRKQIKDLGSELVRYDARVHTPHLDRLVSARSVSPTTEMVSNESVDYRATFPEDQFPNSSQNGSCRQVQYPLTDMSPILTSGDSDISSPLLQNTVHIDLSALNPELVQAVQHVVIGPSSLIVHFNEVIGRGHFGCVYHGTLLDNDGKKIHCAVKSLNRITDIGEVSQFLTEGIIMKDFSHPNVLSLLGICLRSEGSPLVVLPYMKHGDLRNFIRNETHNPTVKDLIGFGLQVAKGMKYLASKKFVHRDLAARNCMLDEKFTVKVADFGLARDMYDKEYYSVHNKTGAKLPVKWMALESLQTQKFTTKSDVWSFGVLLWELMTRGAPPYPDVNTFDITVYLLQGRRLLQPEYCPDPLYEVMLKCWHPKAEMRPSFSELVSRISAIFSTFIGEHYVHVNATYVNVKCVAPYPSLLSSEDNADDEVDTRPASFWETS
# Outline: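 Sandwich ELISA for phospho-Met (panTyr) in PC-3 lysates. Cells starved 3 h serum-free, compound 1 h (8-pt curve, 0.3% DMSO), HGF 100 ng/mL 10 min. 100% = HGF + DMSO; 0% = HGF + reference inhibitor. IC50 by 4-parameter fit.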
# Chain of Mer (phospho-Mer, MERTK-transfected 293A cells) (Q12866 21-999): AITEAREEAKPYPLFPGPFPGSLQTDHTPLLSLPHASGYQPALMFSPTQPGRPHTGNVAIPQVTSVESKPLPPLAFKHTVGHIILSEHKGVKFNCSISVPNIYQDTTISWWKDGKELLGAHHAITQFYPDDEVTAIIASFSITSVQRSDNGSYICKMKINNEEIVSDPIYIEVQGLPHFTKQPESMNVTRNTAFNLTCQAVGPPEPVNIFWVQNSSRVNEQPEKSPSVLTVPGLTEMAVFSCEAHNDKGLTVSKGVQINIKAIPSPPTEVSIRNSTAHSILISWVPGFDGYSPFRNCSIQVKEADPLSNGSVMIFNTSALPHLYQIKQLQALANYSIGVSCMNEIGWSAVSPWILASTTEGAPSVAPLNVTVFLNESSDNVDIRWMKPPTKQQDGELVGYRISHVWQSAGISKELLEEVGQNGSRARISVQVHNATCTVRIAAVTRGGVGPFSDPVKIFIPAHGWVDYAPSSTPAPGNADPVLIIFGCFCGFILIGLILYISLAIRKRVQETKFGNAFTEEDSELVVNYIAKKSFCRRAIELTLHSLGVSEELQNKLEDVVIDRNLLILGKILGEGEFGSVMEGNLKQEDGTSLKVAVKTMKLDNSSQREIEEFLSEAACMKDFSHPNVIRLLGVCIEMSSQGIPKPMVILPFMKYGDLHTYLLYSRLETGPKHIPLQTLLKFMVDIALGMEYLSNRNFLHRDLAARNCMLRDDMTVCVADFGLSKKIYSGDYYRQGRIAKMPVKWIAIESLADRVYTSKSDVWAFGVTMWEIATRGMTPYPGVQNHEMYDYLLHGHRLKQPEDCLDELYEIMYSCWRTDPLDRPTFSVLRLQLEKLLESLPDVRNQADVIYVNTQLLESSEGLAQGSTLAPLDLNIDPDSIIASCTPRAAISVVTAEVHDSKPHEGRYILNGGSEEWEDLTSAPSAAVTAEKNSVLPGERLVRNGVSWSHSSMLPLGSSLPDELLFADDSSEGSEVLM
IC50 [1] [nM],IC50 [2] [nM],SMILES
< 100,< 100,"COc1cc2nccc(Oc3ccc(NC(=O)c4cnc(C)c(-c5ccc(F)cc5)c4O)cc3F)c2nc1OC [Compound 28, N-[4-[(6,7-Dimethoxy-1,5-naphthyridin-4-yl)oxy]-3-fluorophenyl]-5-(4-fluorophenyl)-4-hydroxy-6-methylpyridine-3-carboxamide]"
< 100,< 100,"COc1cc2nccc(Oc3ccc(NC(=O)c4cn(C(C)C)c(C)c(-c5ccccc5)c4=O)cc3F)c2nc1OC [Compound 29, N-[4-[(6,7-Dimethoxy-1,5-naphthyridin-4-yl)oxy]-3-fluorophenyl]-6-methyl-4-oxo-5-phenyl-1-propan-2-ylpyridine-3-carboxamide hydrochloride]"
< 100,< 100,"COc1cc2nccc(Oc3ccc(NC(=O)c4cnc(C)c(-c5ccc(F)cc5)c4O)cc3)c2nc1OC [Compound 119, N-[4-[(6,7-Dimethoxy-1,5-naphthyridin-4-yl)oxy]phenyl]-5-(4-fluorophenyl)-4-hydroxy-6-methylpyridine-3-carboxamide]"
< 100,< 100,"COc1cnc2c(Oc3ccc(NC(=O)c4cncc(-c5ccc(F)cc5)c4O)cc3F)ccnc2c1 [Compound 120, N-[3-Fluoro-4-[(7-methoxy-1,5-naphthyridin-4-yl)oxy]phenyl]-5-(4-fluorophenyl)-4-hydroxypyridine-3-carboxamide]"
< 100,< 100,"COc1cnc2c(Oc3ccc(NC(=O)c4cn(C(C)C)c(C)c(-c5ccc(F)cc5)c4=O)cc3F)ccnc2c1 [Compound 121, N-[3-Fluoro-4-[(7-methoxy-1,5-naphthyridin-4-yl)oxy]phenyl]-5-(4-fluorophenyl)-6-methyl-4-oxo-1-propan-2-ylpyridine-3-carboxamide]"
< 100,< 100,"COc1cc2nccc(Oc3ccc(NC(=O)c4cn(C(C)C)cc(-c5ccc(F)cc5)c4=O)cc3)c2nc1OC [Compound 122, N-[4-[(6,7-Dimethoxy-1,5-naphthyridin-4-yl)oxy]phenyl]-5-(4-fluorophenyl)-4-oxo-1-propan-2-ylpyridine-3-carboxamide]"
< 100,< 100,"COc1cnc2c(Oc3ccc(NC(=O)c4cn(C(C)C)cc(-c5ccc(F)cc5)c4=O)cc3F)ccnc2c1 [Compound 123, N-[3-Fluoro-4-[(7-methoxy-1,5-naphthyridin-4-yl)oxy]phenyl]-5-(4-fluorophenyl)-4-oxo-1-propan-2-ylpyridine-3-carboxamide]"
< 100,< 100,"COc1cc2nccc(Oc3ccc(NC(=O)c4cn(-c5cccnc5)cc(-c5ccc(F)cc5)c4=O)cc3F)c2nc1OC [Compound 125, N-[4-[(6,7-Dimethoxy-1,5-naphthyridin-4-yl)oxy]-3-fluorophenyl]-5-(4-fluorophenyl)-4-oxo-1-pyridin-3-ylpyridine-3-carboxamide]"
< 100,< 100,"COc1cc2nccc(Oc3ccc(NC(=O)c4cn(OC)cc(-c5ccc(F)cc5)c4=O)cc3F)c2nc1OC [Compound 126, N-[4-[(6,7-Dimethoxy-1,5-naphthyridin-4-yl)oxy]-3-fluorophenyl]-5-(4-fluorophenyl)-1-methoxy-4-oxopyridine-3-carboxamide]"
< 100,< 100,"COc1cc2nccc(Oc3ccc(NC(=O)c4cn(OC)cc(-c5ccc(F)cc5)c4=O)cc3)c2nc1OC [Compound 127, N-[4-[(6,7-Dimethoxy-1,5-naphthyridin-4-yl)oxy]phenyl]-5-(4-fluorophenyl)-1-methoxy-4-oxopyridine-3-carboxamide]"
< 100,< 100,"COc1cnc2c(Oc3ccc(NC(=O)c4cn(OC)cc(-c5ccc(F)cc5)c4=O)cc3F)ccnc2c1 [Compound 128, N-[3-Fluoro-4-[(7-methoxy-1,5-naphthyridin-4-yl)oxy]phenyl]-5-(4-fluorophenyl)-1-methoxy-4-oxopyridine-3-carboxamide]"
< 100,100 to 300,"COc1nc2c(Oc3ccc(NC(=O)c4cncc(-c5ccc(F)cc5)c4O)cc3F)ccnc2cc1Br [Compound 129, N-[4-[(7-Bromo-6-methoxy-1,5-naphthyridin-4-yl)oxy]-3-fluorophenyl]-5-(4-fluorophenyl)-4-hydroxypyridine-3-carboxamide]"
< 100,< 100,"COc1nc2c(Oc3ccc(NC(=O)c4cnc(C)c(-c5ccc(F)cc5)c4O)cc3F)ccnc2cc1Br [Compound 130, N-[4-[(7-Bromo-6-methoxy-1,5-naphthyridin-4-yl)oxy]-3-fluorophenyl]-5-(4-fluorophenyl)-4-hydroxy-6-methylpyridine-3-carboxamide]"
< 100,< 100,"COc1nc2c(Oc3ccc(NC(=O)c4cn(C(C)C)cc(-c5ccc(F)cc5)c4=O)cc3F)ccnc2cc1Br [Compound 131, N-[4-[(7-Bromo-6-methoxy-1,5-naphthyridin-4-yl)oxy]-3-fluorophenyl]-5-(4-fluorophenyl)-4-oxo-1-propan-2-ylpyridine-3-carboxamide]"
< 100,100 to 300,"COc1nc2c(Oc3ccc(NC(=O)c4cn(C(C)C)c(C)c(-c5ccc(F)cc5)c4=O)cc3F)ccnc2cc1Br [Compound 132, N-[4-[(7-Bromo-6-methoxy-1,5-naphthyridin-4-yl)oxy]-3-fluorophenyl]-5-(4-fluorophenyl)-6-methyl-4-oxo-1-propan-2-ylpyridine-3-carboxamide]"
100 to 300,> 300,"COC(=O)c1cnc2c(Oc3ccc(NC(=O)c4cnc(C)c(-c5ccc(F)cc5)c4O)cc3F)ccnc2c1 [Compound 138, Methyl 8-[2-fluoro-4-[[5-(4-fluorophenyl)-4-hydroxy-6-methylpyridine-3-carbonyl]amino]phenoxy]-1,5-naphthyridine-3-carboxylate]"
< 100,100 to 300,"COc1cc2nccc(Oc3ccc(NC(=O)c4cn(C(C)(C)C)c(C)c(-c5ccc(F)cc5)c4=O)cc3F)c2nc1OC [Compound 139, 1-tert-Butyl-N-[4-[(6,7-dimethoxy-1,5-naphthyridin-4-yl)oxy]-3-fluorophenyl]-5-(4-fluorophenyl)-6-methyl-4-oxopyridine-3-carboxamide]"
< 100,< 100,"COc1cc2nccc(Oc3ccc(NC(=O)c4cn(-c5cnn(C)c5)c(C)c(-c5ccc(F)cc5)c4=O)cc3F)c2nc1OC [Compound 140, N-[4-[(6,7-Dimethoxy-1,5-naphthyridin-4-yl)oxy]-3-fluorophenyl]-5-(4-fluorophenyl)-6-methyl-1-(1-methylpyrazol-4-yl)-4-oxopyridine-3-carboxamide]"
< 100,< 100,"COc1cc2nccc(Oc3ccc(NC(=O)c4cnc(C)c(-c5ccc(F)cc5)c4O)cc3F)c2nc1Br [Compound 142, N-[4-[(6-Bromo-7-methoxy-1,5-naphthyridin-4-yl)oxy]-3-fluorophenyl]-5-(4-fluorophenyl)-4-hydroxy-6-methylpyridine-3-carboxamide]"
< 100,< 100,"COc1cc2nccc(Oc3ccc(NC(=O)c4cn(C(C)C)c(C)c(-c5ccc(F)cc5)c4=O)cc3F)c2nc1Br [Compound 143, N-[4-[(6-Bromo-7-methoxy-1,5-naphthyridin-4-yl)oxy]-3-fluorophenyl]-5-(4-fluorophenyl)-6-methyl-4-oxo-1-propan-2-ylpyridine-3-carboxamide]"
< 100,< 100,"COCCOc1nc2c(Oc3ccc(NC(=O)c4cnc(C)c(-c5ccc(F)cc5C)c4O)cc3F)ccnc2cc1OC [Compound 144, N-[3-Fluoro-4-[[7-methoxy-6-(2-methoxyethoxy)-1,5-naphthyridin-4-yl]oxy]phenyl]-5-(4-fluoro-2-methylphenyl)-4-hydroxy-6-methylpyridine-3-carboxamide]"
< 100,< 100,"COc1cnc2c(Oc3ccc(NC(=O)c4cncc(-c5ccc(F)cc5)c4O)cc3)ccnc2c1 [Compound 146, 5-(4-Fluorophenyl)-4-hydroxy-N-[4-[(7-methoxy-1,5-naphthyridin-4-yl)oxy]phenyl]pyridine-3-carboxamide]"
< 100,< 100,"COc1cnc2c(Oc3ccc(NC(=O)c4cn(C(C)C)c(C)c(-c5ccc(F)cc5)c4=O)cc3)ccnc2c1 [Compound 148, 5-(4-Fluorophenyl)-N-[4-[(7-methoxy-1,5-naphthyridin-4-yl)oxy]phenyl]-6-methyl-4-oxo-1-propan-2-ylpyridine-3-carboxamide]"
< 100,< 100,"Cc1ncc(C(=O)Nc2ccc(Oc3ccnc4cc(C(F)(F)F)cnc34)c(F)c2)c(O)c1-c1ccc(F)cc1 [Compound 151, 5-(4-Fluorophenyl)-N-[3-fluoro-4-[[7-(trifluoromethyl)-1,5-naphthyridin-4-yl]oxy]phenyl]-4-hydroxy-6-methylpyridine-3-carboxamide]"
< 100,< 100,"Cc1nc2c(Oc3ccc(NC(=O)c4cn(C(C)C)c(C)c(-c5ccc(F)cc5)c4=O)cc3F)ccnc2cc1Br [Compound 153, N-[4-[(7-Bromo-6-methyl-1,5-naphthyridin-4-yl)oxy]-3-fluorophenyl]-5-(4-fluorophenyl)-6-methyl-4-oxo-1-propan-2-ylpyridine-3-carboxamide]"
< 100,100 to 300,"COc1cc2nccc(Oc3ccc(NC(=O)c4cnc(C(C)(C)C)c(-c5ccc(F)cc5)c4O)cc3F)c2nc1OC [Compound 155, 6-tert-Butyl-N-[4-[(6,7-dimethoxy-1,5-naphthyridin-4-yl)oxy]-3-fluorophenyl]-5-(4-fluorophenyl)-4-hydroxypyridine-3-carboxamide]"
